Measurements taken from US9902696B2, “1,4-substituted piperidine derivatives” (Cephalon, Inc., priority 2015, dated 2018).
Structures can show the parent of a compound that is named as a salt.

Biological target: T1, recombinant human baculovirus-expressed GST-tagged FASN (Homo sapiens, UniProt P49327)
T1 construct: GST
Experiment: FASN enzyme activity assay, fluorescence-based detection of CoA with CPM
Format: biochemical
Details: 5 nM FASN, 150 μM NADPH, 10 μM acetyl-CoA, 25 μM malonyl-CoA, 90 minutes incubation; read-out: IC50 data for Additional Compounds of Formulae I-V(a): Activity
Method in brief: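 Human GST-tagged FASN, baculovirus-expressed (5 nM), in 50 mM HEPES pH 7.5 with 150 μM NADPH, 10 μM acetyl-CoA, 25 μM malonyl-CoA, 0.5% DMSO; malonyl-CoA-started, 90 min. Released CoA detected with CPM (50 μM dilution), 30 min, fluorescence ex 390/em 530. IC50 from variable-slope sigmoidal fit of % inhibition versus log concentration.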

T1 sequence (P49327 whole entry): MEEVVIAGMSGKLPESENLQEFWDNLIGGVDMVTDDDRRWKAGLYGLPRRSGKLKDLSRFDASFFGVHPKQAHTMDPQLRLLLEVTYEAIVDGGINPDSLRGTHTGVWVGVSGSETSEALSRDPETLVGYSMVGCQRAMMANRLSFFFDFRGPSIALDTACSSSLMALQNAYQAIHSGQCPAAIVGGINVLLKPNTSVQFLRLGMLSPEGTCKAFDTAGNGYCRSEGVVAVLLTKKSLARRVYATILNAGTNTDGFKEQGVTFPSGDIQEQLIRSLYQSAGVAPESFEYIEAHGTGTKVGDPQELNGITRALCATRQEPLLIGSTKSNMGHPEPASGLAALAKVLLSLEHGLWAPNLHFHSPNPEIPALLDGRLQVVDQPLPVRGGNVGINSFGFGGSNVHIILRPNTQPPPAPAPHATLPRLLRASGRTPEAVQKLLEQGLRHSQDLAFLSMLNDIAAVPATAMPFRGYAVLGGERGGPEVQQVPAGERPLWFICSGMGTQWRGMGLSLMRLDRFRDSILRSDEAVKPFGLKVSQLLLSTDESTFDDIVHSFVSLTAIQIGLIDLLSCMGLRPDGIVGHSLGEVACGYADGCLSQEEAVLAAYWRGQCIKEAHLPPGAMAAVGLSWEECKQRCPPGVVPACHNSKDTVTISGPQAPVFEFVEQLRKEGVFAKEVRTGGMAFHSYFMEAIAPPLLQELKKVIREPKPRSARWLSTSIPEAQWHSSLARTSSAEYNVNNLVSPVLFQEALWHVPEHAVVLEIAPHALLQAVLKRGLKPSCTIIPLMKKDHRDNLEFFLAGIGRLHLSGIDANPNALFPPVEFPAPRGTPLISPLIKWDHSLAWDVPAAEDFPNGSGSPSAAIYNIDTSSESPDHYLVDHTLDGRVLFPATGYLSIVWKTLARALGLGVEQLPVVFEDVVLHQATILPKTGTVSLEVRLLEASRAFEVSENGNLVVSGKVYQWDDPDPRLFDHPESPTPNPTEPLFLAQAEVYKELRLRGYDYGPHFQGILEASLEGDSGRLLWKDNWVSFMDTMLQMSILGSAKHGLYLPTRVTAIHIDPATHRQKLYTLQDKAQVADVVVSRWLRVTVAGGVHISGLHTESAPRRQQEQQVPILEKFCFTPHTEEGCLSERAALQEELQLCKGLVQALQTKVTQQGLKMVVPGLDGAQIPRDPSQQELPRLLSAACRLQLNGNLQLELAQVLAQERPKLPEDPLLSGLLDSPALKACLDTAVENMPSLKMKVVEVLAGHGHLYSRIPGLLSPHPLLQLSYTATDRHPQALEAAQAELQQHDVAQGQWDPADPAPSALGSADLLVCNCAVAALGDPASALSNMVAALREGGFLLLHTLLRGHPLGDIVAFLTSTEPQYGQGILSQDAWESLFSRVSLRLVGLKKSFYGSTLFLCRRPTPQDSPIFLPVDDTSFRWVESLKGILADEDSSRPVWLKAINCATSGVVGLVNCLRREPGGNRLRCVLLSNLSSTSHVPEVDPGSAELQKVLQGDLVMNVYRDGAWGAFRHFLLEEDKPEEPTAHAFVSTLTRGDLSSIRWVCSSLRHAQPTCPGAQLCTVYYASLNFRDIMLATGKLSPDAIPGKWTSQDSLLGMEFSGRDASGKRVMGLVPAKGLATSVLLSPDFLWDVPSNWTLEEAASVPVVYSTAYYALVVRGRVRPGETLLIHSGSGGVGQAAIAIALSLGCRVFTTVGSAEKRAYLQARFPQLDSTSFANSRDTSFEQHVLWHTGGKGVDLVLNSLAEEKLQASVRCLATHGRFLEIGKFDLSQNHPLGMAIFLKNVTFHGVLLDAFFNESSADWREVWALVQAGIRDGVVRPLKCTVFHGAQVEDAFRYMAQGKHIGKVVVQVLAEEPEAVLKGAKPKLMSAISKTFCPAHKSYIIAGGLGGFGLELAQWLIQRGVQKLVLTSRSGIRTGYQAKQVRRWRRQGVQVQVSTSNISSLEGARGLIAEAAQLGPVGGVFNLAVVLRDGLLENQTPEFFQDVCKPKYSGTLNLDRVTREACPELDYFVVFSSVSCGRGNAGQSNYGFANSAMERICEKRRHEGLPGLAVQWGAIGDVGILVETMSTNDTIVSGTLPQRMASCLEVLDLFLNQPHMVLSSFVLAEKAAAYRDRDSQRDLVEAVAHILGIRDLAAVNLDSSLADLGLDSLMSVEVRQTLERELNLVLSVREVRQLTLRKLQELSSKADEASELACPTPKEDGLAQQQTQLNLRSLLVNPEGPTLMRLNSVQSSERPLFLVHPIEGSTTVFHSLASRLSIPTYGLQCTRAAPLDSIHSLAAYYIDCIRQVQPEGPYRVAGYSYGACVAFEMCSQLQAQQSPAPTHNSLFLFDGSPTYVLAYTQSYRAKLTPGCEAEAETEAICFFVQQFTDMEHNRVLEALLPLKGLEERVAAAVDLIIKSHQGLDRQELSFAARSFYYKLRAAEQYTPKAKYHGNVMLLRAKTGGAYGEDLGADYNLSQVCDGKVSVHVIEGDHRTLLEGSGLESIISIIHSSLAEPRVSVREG

Structure (SMILES)	IC50
Cc1c(-c2ccc(OC3CCN(C(=O)NOCC(C)C)CC3)cc2)ccc2cccnc12 [Example 544, N-Isobutoxy-4-[4-(8-methyl-7-quinolyl)phenoxy]piperidine-1-carboxamide]	1 to 99 nM

Same assay, conditions: 5 nM FASN, 150 μM NADPH, 10 μM acetyl-CoA, 25 μM malonyl-CoA, 90 minutes incubation; read-out: IC50 data for Compounds of Formulae I-V/V(a): Activity

Structure (SMILES)	IC50
O=C(C1CC1)N1CCC(Oc2ccc(-c3ccc(Nc4ccccc4)nc3)cc2)CC1 [Example 393, Cyclopropyl-{4-[4-(6-phenylaminopyridin-3-yl)-phenoxy]-piperidin-1-yl}-methanone, TFA salt]	1000 to 10000 nM
Cc1cc(-c2ccc(OC3CCN(C(=O)C4CC4)CC3)cc2)cc2ncccc12 [Example 347, Cyclopropyl(4-(4-(5-methylquinolin-7-yl)phenoxy)piperidin-1-yl)methanone, HCl]	100 to 999 nM
CCC(=O)N1CCC(Oc2ccc(-c3cnc4c(c3)CCCC4)cc2)CC1 [Example 21, 1-{4-[4-(5,6,7,8-Tetrahydroquinolin-3-yl)-phenoxy]-piperidin-1-yl}-propan-1-one]	1000 to 10000 nM
CCCNC(=O)N1CCC(Oc2ccc(-c3ccc4cccnc4c3C)cc2)CC1 [Example 96, 4-[4-(8-methyl-7-quinolyl)phenoxy]-N-propyl-piperidine-1-carboxamide]	1 to 99 nM
O=C(C1CC1)N1CCC(Oc2ccc(-c3ccc4cccnc4c3)nc2)CC1 [Example 146, Cyclopropyl-[4-(6-quinolin-7-yl-pyridin-3-yloxy)-piperidin-1-yl]-methanone, 2HCl]	1000 to 10000 nM
O=C([C@H]1CCCO1)N1CCC(Oc2ccc(-c3ccc4cccnc4c3C3CC3)cc2)CC1 [Example 475, [4-[4-(8-Cyclopropyl-7-quinolyl)phenoxy]-1-piperidyl]-[(2R)-tetrahydrofuran-2-yl]methanone, HCl]	1 to 99 nM
Cc1c(-c2ccc(OC3CCN(C(=O)C(F)(F)F)CC3)cc2)ccc2cccnc12 [Example 357, 2,2,2-Trifluoro-1-{4-[4-(8-methyl-quinolin-7-yl)-phenoxy]-piperidin-1-yl}-ethanone]	1000 to 10000 nM
O=C(C1CCCO1)N1CCC(Oc2ccc(-c3cnc4ccccc4c3)cc2)CC1 (centres unmarked) [Example 126, [4-(4-Quinolin-3-yl-phenoxy)-piperidin-1-yl]-(tetrahydrofuran-2-yl)-methanone, HCl]	1 to 99 nM
O=C([C@H]1CCCO1)N1CCC(Oc2ccc(-c3ccc4cccnc4c3OCCCN3CCCC3)cc2)CC1 [Example 184, (4-{4-[8-(3-Pyrrolidin-1-yl-propoxy)-quinolin-7-yl]-phenoxy}-piperidin-1-yl)-(R)-tetrahydrofuran-2-yl-methanone, HCl]	100 to 999 nM

The remaining lines, values ahead:

IC50	Structure (SMILES)
1 to 99 nM	COc1ccc2cc(-c3ccc(OC4CCN(C(=O)C5CC5)CC4)cc3)cnc2c1 [Example 34, Cyclopropyl-{4-[4-(7-methoxyquinolin-3-yl)-phenoxy]-piperidin-1-yl}-methanone]
100 to 999 nM	CCC(=O)N1CCC(Oc2ccc(-c3cc(C)c4cccnc4c3)cc2)CC1 [Example 346, 1-(4-(4-(5-Methylquinolin-7-yl)phenoxy)piperidin-1-yl)propan-1-one, HCl]
1000 to 10000 nM	CCC(=O)N1CCC(Oc2ccc(-c3ccc4cccnc4c3)cc2OC)CC1 [Example 199, 1-[4-(2-Methoxy-4-quinolin-7-yl-phenoxy)-piperidin-1-yl]-propan-1-one]
1000 to 10000 nM	CCC(=O)N1CCC(Oc2ccc(-c3ccc(-c4ccccc4)nc3)cc2)CC1 [Example 378, 1-{4-[4-(6-Phenyl-pyridin-3-yl)-phenoxy]-piperidin-1-yl}-propan-1-one]
1000 to 10000 nM	CCC(=O)N1CCC(Oc2ccc(-c3c[nH]c4ccccc34)cc2)CC1 [Example 246, 1-{4-[4-(1H-Indol-3-yl)-phenoxy]-piperidin-1-yl}-propan-1-one]
100 to 999 nM	CCC(=O)N1CCC(Oc2ccc(-c3ccc4cnc(N)cc4c3)cc2)CC1 [Example 422, 1-{4-[4-(3-Aminoisoquinolin-6-yl)-phenoxy]-piperidin-1-yl}-propan-1-one]
100 to 999 nM	COc1nccc2cc(-c3ccc(OC4CCN(C(=O)C5CC5)CC4)cc3)ccc12 [Example 435, Cyclopropyl-{4-[4-(1-methoxyisoquinolin-6-yl)-phenoxy]-piperidin-1-yl}-methanone]
